The target of test [1] is JAK1 (recombinant purified GST-tagged catalytic domain) (Homo sapiens (Human), UniProt P23458). The test is described as follows: biochemical.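 Also: biochemical assay with HTRF read-out.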
The target of test [2] is JAK2 (recombinant purified GST-tagged catalytic domain) (Homo sapiens (Human), UniProt O60674). As to the kind of experiment: biochemical.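 Also: biochemical JAK kinase assay with HTRF detection.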
Chain of JAK2 (recombinant purified GST-tagged catalytic domain) (O60674 849-1124): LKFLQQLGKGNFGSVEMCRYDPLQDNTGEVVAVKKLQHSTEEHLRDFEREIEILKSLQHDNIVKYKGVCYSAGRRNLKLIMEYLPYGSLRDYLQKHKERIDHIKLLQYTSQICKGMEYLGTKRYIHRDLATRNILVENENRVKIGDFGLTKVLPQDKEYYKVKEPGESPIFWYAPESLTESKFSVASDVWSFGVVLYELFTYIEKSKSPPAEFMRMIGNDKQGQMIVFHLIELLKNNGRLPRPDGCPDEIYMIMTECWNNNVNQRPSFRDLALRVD

Chain of JAK1 (recombinant purified GST-tagged catalytic domain) (P23458 875-1153): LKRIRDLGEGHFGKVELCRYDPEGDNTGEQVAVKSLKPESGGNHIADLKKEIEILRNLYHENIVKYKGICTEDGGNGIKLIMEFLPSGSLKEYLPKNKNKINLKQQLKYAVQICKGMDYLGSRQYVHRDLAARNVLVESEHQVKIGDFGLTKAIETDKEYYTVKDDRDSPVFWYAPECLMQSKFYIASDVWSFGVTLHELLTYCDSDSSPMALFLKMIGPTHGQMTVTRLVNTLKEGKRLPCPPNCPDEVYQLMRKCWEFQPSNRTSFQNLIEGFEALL

Regarding `N#C[C@H]1C[C@H](O)CCC1n1cc(C(N)=O)c(Nc2ccccc2)n1` (mixture of isomers) [Example 2-2, 1-[(1S,2S,4R and 1R,2R,4S)-2-cyano-4-hydroxycyclohexyl]-3-(phenylamino)-1H-pyrazole-4-carboxamide], the half-maximal inhibitory concentration (IC50) came out at 6 nM in test [1] and 70 nM in test [2].
Consider `COC(=O)C1CC[C@H](C#N)C(n2cc(C(N)=O)c(Nc3ccccc3)n2)C1` (mixture of isomers) [Example 2-4, methyl (3R,4R and 3S,4S)-3-[4-carbamoyl-3-(phenylamino)-1H-pyrazol-1-yl]-4-cyanocyclohexanecarboxylate], for which the concentration for half-maximal inhibition (IC50) is 423 nM in test [1] and greater than 1500 nM in test [2].
As to `N#C[C@@H]1CCC[C@@H](O)C1n1cc(C(N)=O)c(Nc2ccccc2)n1` (mixture of isomers) [Example 2-5, 1-[(1R,2R,6R and 1S,2S,6S)-2-cyano-6-hydroxycyclohexyl]-3-(phenylamino)-1H-pyrazole-4-carboxamide], the IC50 in test [1] was 700 nM; in test [2], greater than 1500 nM.
In the same order, the values of `N#C[C@H]1CCC[C@@H](O)C1n1cc(C(N)=O)c(Nc2ccccc2)n1` (mixture of isomers) [Example 2-6, 1-[(1R,2S,6R and 1S,2R,6S)-2-cyano-6-hydroxycyclohexyl]-3-(phenylamino)-1H-pyrazole-4-carboxamide] are 370 nM and 1000 nM.
`N#C[C@H]1CCC[C@H](O)C1n1cc(C(N)=O)c(Nc2ccccc2)n1` (mixture of isomers) [Example 2-7, 1-[(1R,2S,6S and 1S,2R,6R)-2-cyano-6-hydroxycyclohexyl]-3-(phenylamino)-1H-pyrazole-4-carboxamide]: the results for the IC50 in test [1] and in test [2] were 170 nM and 320 nM, respectively.
In the case of `N#C[C@H]1CC[C@H](O)CC1n1cc(C(N)=O)c(Nc2ccccc2)n1` (mixture of isomers) [Example 2-12, 1-[(1R,2R,5R and 1S,2S,5S)-2-cyano-5-hydroxycyclohexyl]-3-(phenylamino)-1H-pyrazole-4-carboxamide], the concentration for half-maximal inhibition (IC50) in test [1] was 15 nM; in test [2], 79 nM.
Regarding `CN([C@H]1CCC(n2cc(C(N)=O)c(Nc3ccc(Cl)cc3)n2)[C@@H](C#N)C1)C1(C)COC1` (single isomer, unassigned) [Example 28-232, 3-[(4-chlorophenyl)amino]-1-{(1S,2S,4S or 1R,2R,4R)-2-cyano-4-[methyl(3-methyloxetan-3-yl)amino]cyclohexyl}-1H-pyrazole-4-carboxamide], the IC50 in test [2] stood at 7 nM.
As to `CN(CC(F)(F)F)[C@H]1CCC(n2cc(C(N)=O)c(Nc3ccnc(F)c3)n2)[C@@H](C#N)C1` (single isomer, unassigned) [Example 28-233, 1-{(1S,2S,4S or 1R,2R,4R)-2-cyano-4-[methyl(2,2,2-trifluoroethyl)amino]cyclo-hexyl}-3-[(2-fluoropyridin-4-yl)amino]-1 H-pyrazole-4-carboxamide], the IC50 in test [2] came out at 6 nM.
Same read-out and setting: the figure for `CC1(N[C@H]2CCC(n3cc(C(N)=O)c(Nc4ccc(Cl)cc4)n3)[C@@H](C#N)C2)CCOCC1` (single isomer, unassigned) [Example 28-235, 3-[(4-chlorophenyl)amino]-1-{(1S,2S,4S or 1R,2R,4R)-2-cyano-4-[(4-methyltetrahydro-2H-pyran-4-yl)amino]cyclohexyl}-1H-pyrazole-4-carboxamide] is 25 nM; for `CN(CC1CC1)[C@@H]1CC[C@H](n2cc(C(N)=O)c(Nc3ccc(C(F)(F)F)cc3)n2)[C@@H](C#N)C1` (single isomer, unassigned) [Example 30-2, 1-{(1S,2S,4R or 1R,2R,4S)-2-cyano-4-[(cyclopropyl-methyl)(methyl)amino]cyclo-hexyl}-3-{[4-(trifluoromethyl)phenyl]amino}-1H-pyrazole-4-carboxamide] it is 135 nM; for `N#C[C@H]1C[C@H](NCc2c(F)cccc2F)CC[C@@H]1n1cc(C(N)=O)c(Nc2ccc(C(F)(F)F)cc2)n1` (single isomer, unassigned) [Example 30-13, 1-{(1S,2S,4R or 1R,2R,4S)-2-cyano-4-[(2,6-difluoro-benzyl)amino]cyclohexyl}-3-{[4-(trifluoromethyl)phenyl]amino}-1H-pyrazole-4-carboxamide] it is 500 nM.
As for `N#C[C@H]1C[C@@H](O)CC[C@@H]1n1cc(C(N)=O)c(Nc2ccc(Cl)nc2)n1` (single isomer, unassigned) [Example 33-14, 3-[(6-chloropyridin-3-yl)amino]-1-[(1S,2S,4S or 1R,2R,4R)-2-cyano-4-hydroxycyclohexyl]-1H-pyrazole-4-carboxamide], the IC50 in test [2] amounted to 14 nM.
`N#C[C@H]1C[C@@H](O)CC[C@@H]1n1cc(C(N)=O)c(Nc2ccc(C3CC3)cc2)n1` (single isomer, unassigned) [Example 33-18, 1-[(1S,2S,4S or 1R,2R,4R)-2-cyano-4-hydroxycyclohexyl]-3-[(4-cyclopropylphenyl)amino]-1H-pyrazole-4-carboxamide]: the IC50 in test [2] came to 10 nM.
Still for that read-out and setting: as for `N#C[C@@H]1C[C@H](C(=O)NC2CCC2)CC[C@H]1n1cc(C(N)=O)c(Nc2ccc(Cl)cc2)n1` (single isomer, unassigned) [Example 35-11, 3-[(4-chlorophenyl)amino]-1-[(1R,2R,4R or 1S,2S,4S)-2-cyano-4-(cyclobutylcarbamoyl)cyclohexyl]-1H-pyrazole-4-carboxamide], the figure is 78 nM; as for `N#C[C@H]1C[C@@H](C(=O)NC2CCC2)CC[C@@H]1n1cc(C(N)=O)c(Nc2ccc(Cl)cc2)n1` (single isomer, unassigned) [Example 35-12, 3-[(4-chlorophenyl)amino]-1-[(1S,2S,4S or 1R,2R,4R)-2-cyano-4-(cyclobutylcarbamoyl)cyclohexyl]-1H-pyrazole-4-carboxamide], 103 nM.
For `N#C[C@@H]1CCCC[C@H]1n1cc(C(N)=O)c(Nc2ccc(S(=O)(=O)C(F)F)cc2)n1` (single isomer, unassigned) [Example 43-5, 1-[(1S,2S or 1R,2R)-2-cyanocyclohexyl]-3-({4-[(difluoromethyl)sulfonyl]phenyl}amino)-1H-pyrazole-4-carboxamide], in test [2], the IC50 was 28 nM.
Turning to `N#C[C@@H]1CCCC[C@H]1n1cc(C(N)=O)c(Nc2ccc(S(=O)(=O)C(F)F)cc2)n1` (single isomer, unassigned) [Example 43-6, 1-[(1S,2S or 1R,2R)-2-cyanocyclohexyl]-3-({4-[(difluoromethyl)sulfonyl]phenyl}amino)-1H-pyrazole-4-carboxamide], the IC50 in test [2] is 2 nM.
For `CC(C)(C)OC(=O)N[C@@H]1CC[C@H](C#N)C(n2cc(C(N)=O)c(Nc3ccc(F)cc3)n2)C1` (single isomer, unassigned) [Example 44-1, tert-Butyl[(1R,3S,4S or 1S,3R,4R)-3-{4-carbamoyl-3-[(4-fluorophenyl)amino]-1H-pyrazol-1-yl}-4-cyanocyclohexyl]carbamate], the half-maximal inhibitory concentration (IC50) in test [2] was 43 nM.
The same measure, in the same setting: as for `CC(C)(C)OC(=O)N[C@@H]1CC[C@H](C#N)C(n2cc(C(N)=O)c(Nc3ccc(F)cc3)n2)C1` (single isomer, unassigned) [Example 44-2, tert-Butyl[(1R,3S,4S or 1S,3R,4R)-3-{4-carbamoyl-3-[(4-fluorophenyl)amino]-1H-pyrazol-1-yl}-4-cyanocyclohexyl]carbamate], the figure is 990 nM.

Broadly, the IC50 is the concentration that inhibits the measured activity by half.

The record behind these values is patent publication US8962608B2, “Cycloalkylnitrile pyrazole carboxamides as janus kinase inhibitors” (Merck Sharp & Dohme Corp., priority 2011, dated 2015).
